# Results reported in patent publication US11952363B2, “Piperazine compounds for the treatment of autoimmune disease” (Hoffmann-La Roche Inc., priority 2018, dated 2024).
# pIC50: −log10 of the molar value.
# What was measured:
# CYP2D6 = target: T1, CYP2D6 (Homo sapiens, UniProt P10635); assay: CYP inhibition assay in human liver microsome; type: in vitro ADME; conditions: liver microsomes, probe dextromethorphan, 10 μM compound, dextromethorphan substrate, percentage inhibition < 0: not or weak inhibitor, read-out: CYP 2D6 inhibition % @10 μM
# T1 construct: tissue BD-Gentest 452117; host or cells: human liver microsomes
# Procedure: This is a high throughput screening assay used for assessment of reversible inhibition of CYP2D6 activity of test compounds in human liver microsome (HLM) in early discovery stage.
# 10 mM DMSO stock solutions of test compounds were diluted in DMSO to generate 2 mM intermediate stock solution. 250 nL of intermediate stock solution were transferred in duplicate into 3 separate 384 well microtitre plates (assay-ready plates). A mixture of HLM and each substrate was made up. 45 μL of HLM substrate mix was then transferred to each well of an assay ready plate and mixed. The negative (solvent) and positive control (standard inhibitor for CYP 2D6) were included in each assay ready plate. The assay ready plate was warmed to 37° C. in an incubator over 10 minutes. 5μL pre-warmed NADPH regenerating system was added to each incubation well to start the reaction. Final incubation volume was 50 μL. The assay plate then was placed back in the 37° C. incubator. After 10 minutes incubation, incubates were quenched by addition of 50 μL 100% acetonitrile containing internal standards (20 ng/mL D3-Dextrorphan). The supernatants were collected for RapidFire/MS/MS analysis.
# RapidFire online solid phase extraction/sample injection system (Agilent) coupled with API4000 triple quadrupole mass spectrometer (AB Sciex) were used for sample analysis. The mobile phase composed of acetonitrile and water supplemented with 0.1% formic acid. A C4 solid phase extraction cartridge is used for sample separation. MS detection is achieved in positive ion MRM mode.
# Peak areas for substrate, metabolite and internal standard are determined using the RapidFire integrator software (version 3.6.12009.12296). Peak area ratios (PAR) of metabolite and internal standard (stable-labelled metabolite) are then calculated. The measurement window for each experiment is then defined:
# PAR (0% activity)=average PAR for all incubations containing concentrated inhibitor;
# Par (100% activity)=average PAR for all incubations containing no inhibitor (DMSO controls);
# % Activity (test inhibitor)
# =[PAR(test inhibitor)-PAR(0% activity)]/[PAR(100% activity)-PAR(0% activity)];
# % Inhibition (test inhibitor)=100-% Activity (test inhibitor).
# human TLR9 = target: T2, human TLR9 (Homo sapiens, UniProt Q9NR96); assay: HEK293-Blue-hTLR-9 cells assay (SEAP reporter, ODN2006 stimulation); type: cell-based; conditions: HEK293-Blue-hTLR9 cells, ODN2006 ligand, 20 hrs incubation; read-out: HEK/hTLR9 IC50
# T2 sequence (Q9NR96 26-1032): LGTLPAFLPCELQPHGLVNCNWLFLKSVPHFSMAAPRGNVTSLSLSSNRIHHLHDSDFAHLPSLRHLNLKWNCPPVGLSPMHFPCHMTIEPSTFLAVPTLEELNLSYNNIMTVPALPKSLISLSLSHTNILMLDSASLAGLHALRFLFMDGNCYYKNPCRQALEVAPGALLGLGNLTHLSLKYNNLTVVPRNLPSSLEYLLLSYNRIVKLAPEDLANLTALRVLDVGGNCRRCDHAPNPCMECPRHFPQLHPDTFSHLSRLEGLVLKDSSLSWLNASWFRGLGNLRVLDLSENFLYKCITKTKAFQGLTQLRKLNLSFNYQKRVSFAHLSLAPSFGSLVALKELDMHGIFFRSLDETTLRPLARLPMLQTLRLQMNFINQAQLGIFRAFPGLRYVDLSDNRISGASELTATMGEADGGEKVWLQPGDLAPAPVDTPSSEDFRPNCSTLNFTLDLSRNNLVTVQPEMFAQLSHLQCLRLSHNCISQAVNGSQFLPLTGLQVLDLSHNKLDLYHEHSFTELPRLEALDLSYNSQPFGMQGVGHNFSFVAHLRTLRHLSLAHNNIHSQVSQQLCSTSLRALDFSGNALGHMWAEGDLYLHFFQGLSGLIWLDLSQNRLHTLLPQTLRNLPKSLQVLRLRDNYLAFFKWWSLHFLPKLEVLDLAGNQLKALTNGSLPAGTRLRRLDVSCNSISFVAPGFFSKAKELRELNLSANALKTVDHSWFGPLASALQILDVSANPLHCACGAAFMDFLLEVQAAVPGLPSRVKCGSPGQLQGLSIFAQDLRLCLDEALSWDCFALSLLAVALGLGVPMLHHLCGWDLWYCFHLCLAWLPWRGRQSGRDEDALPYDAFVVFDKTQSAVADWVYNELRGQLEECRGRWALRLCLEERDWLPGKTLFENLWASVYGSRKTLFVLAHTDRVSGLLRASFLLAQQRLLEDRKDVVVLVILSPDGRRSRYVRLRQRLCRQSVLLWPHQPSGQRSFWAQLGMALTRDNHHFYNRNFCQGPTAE
# Procedure: The following tests were carried out in order to determine the activity of the compounds of formula (I) in HEK293-Blue-hTLR-7/8/9 cells assay.
# A stable HEK293-Blue-hTLR-9 cell line was purchased from InvivoGen (Cat.#: hkb-htlr9, San Diego, California, USA). These cells were originally designed for studying the stimulation of human TLR9 by monitoring the activation of NF-κB. A SEAP (secreted embryonic alkaline phosphatase) reporter gene was placed under the control of the IFN-β minimal promoter fused to five NF-κB and. AP-1-binding sites. The SEAP was induced by activating NF-κB and AP-1 via stimulating HEK-Blue hTLR9 cells with TLR9 ligands. Therefore the reporter expression was declined by TLR9 antagonist under the stimulation of a ligand, such as ODN2006 (Cat.#: tlr1-2006-1, Invivogen, San Diego, California, USA), for incubation of 20 his. The cell culture supernatant SEAP reporter activity was determined using QUANTI-Blue™ kit (Cat.#: rep-qb1, Invivogen, San Diego, California, USA) at a wavelength of 640 nm, a detection medium that turns purple or blue in the presence of alkaline phosphatase.
# HEK293-Blue-hTLR9 cells were incubated at a density of 250,000-450,000 cells/mL in a volume of 170 μL in a 96-well plate in Dulbecco's Modified Eagle's medium (DMEM) containing 4.5 g/L glucose, 50 U/mL penicillin, […], […], 2 mM L-glutamine, 10% (v/v) heat-inactivated fetal bovine serum with addition of 20 μL test compound in a serial dilution in the presence of final DMSO at 1% and 10 p L of 20uM ODN2006 in above DMEM, perform incubation under 37° C. in a CO2 incubator for 20 hrs. Then 20 μL of the supernatant from each well was incubated with 180 μL Quanti-blue substrate solution at 37° C. for 2 h and the absorbance was read at 620˜655 nm using a spectrophotometer. The signaling pathway that TLR9 activation leads to downstream NF-κB activation has been widely accepted, and therefore similar reporter assay was modified for evaluating TLR9 antagonist.
# T1 sequence (P10635 whole entry): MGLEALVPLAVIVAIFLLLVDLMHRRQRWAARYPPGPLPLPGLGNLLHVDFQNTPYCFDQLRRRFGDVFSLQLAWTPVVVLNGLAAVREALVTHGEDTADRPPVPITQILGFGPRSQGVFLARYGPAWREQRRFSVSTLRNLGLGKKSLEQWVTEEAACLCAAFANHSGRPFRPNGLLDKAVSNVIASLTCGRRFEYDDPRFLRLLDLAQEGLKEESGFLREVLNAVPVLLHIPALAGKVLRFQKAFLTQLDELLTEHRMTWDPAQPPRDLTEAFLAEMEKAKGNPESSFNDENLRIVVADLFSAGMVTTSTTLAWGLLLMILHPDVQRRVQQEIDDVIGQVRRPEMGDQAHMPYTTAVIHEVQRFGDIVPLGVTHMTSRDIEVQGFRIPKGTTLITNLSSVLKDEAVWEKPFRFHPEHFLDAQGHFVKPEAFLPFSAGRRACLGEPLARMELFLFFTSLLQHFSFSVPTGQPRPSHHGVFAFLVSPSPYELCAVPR
Compound,"inhibition at 10 min, 10 µM (CYP2D6)",pIC50 (human TLR9)
"C[C@@H]1CN(c2ccc(C#N)c3ncccc23)C[C@H](C)N1Cc1ncc(N2CCN(C(=O)CN(C)C)CC2)cn1 [Example 6, 5-[(3S,5R)-4-[[5-[4-[2-(Dimethylamino)acetyl]piperazin-1-yl]pyrimidin-2-yl]methyl]-3,5-dimethyl-piperazin-1-yl]quinoline-8-carbonitrile]",5%,6.86
"C[C@@H]1CN(c2ccc(C#N)c3ncccc23)C[C@H](C)N1Cc1ccc(N2CC3CNCC(C2)O3)cn1 [Example 8, 5-[(3S,5R)-3,5-Dimethyl-4-[[5-(9-oxa-3,7-diazabicyclo[3.3.1]nonan-3-yl)-2-pyridyl]methyl]piperazin-1-yl]quinoline-8-carbonitrile]",12.5%,7.14
"C[C@@H]1CN(c2ccc(C#N)c3ncccc23)C[C@H](C)N1Cc1ccc(N2CCNCC2)nc1 [Example 3, 5-[(3R,5S)-3,5-Dimethyl-4-[(6-piperazin-1-yl-3-pyridyl)methyl]piperazin-1-yl]quinoline-8-carbonitrile]",-2.5%,7.03
"CC1CN(c2ccc(C#N)c3ncccc23)CCN1CC(=O)Nc1ccc2c(c1)CCNC2 (centres unmarked) [Example 18, 2-[4-(8-Cyano-5-quinolyl)-2-methyl-piperazin-1yl]-N-(1,2,3,4-tetrahydroisoquinolin-6-yl)acetamide]",12.5%,6.92

# Continued by rising pIC50 (human TLR9), values first:
"inhibition at 10 min, 10 µM (CYP2D6)",pIC50 (human TLR9),Compound
19%,7.03,"C[C@@H]1CN(c2ccc(C#N)c3ncccc23)C[C@H](C)N1CC(=O)N1CCc2ccc(N3CCNCC3)cc2C1 [Example 15, 5-[(3R,5S)-3,5-dimethyl-4-[2-pxp-2-(7-piperazin-1-yl-3,4-dihydro-1H-isoquinolin-2-yl)ethyl]piperazin-1-yl]quinoline-8-carbonitrile]"
-6.5%,7.33,"C[C@@H]1CN(c2ccc(C#N)c3ncccc23)C[C@H](C)N1Cc1ccc(N[C@@H]2CNC[C@@H]2F)cn1 [Example 9, 5-[(3R,5S)-3,5-Dimethyl-4-[[5-[[(3R,4S)-4-fluoropyrrolidin-3-yl]amino]-2-pyridyl]methyl]piperazin-1-yl]quinoline-8-carbonitrile]"
4.5%,7.39,"C[C@@H]1CN(c2ccc(C#N)c3ncccc23)C[C@H](C)N1Cc1ccc(N2CCN(C(=O)C3CCCN3)CC2)cn1 (stereo partly drawn) [Example 10, 5-[(3R,5S)-3,5-Dimethyl-4-[[5-[4-(pyrrolidine-2-carbonyl)piperazin-1-yl]-2-pyridyl]methyl]piperazin-1-yl]quinoline-8-carbonitrile]"
